Here are results for 24 compounds from patent US7064122B2, “Pancreatic lipase inhibitor compounds, their synthesis and use” (OSI Pharmaceuticals, Inc., priority 2001, dated 2006).

Data set [1] deals with T1, type VI-S porcine pancreatic lipase (Sus scrofa, UniProt P00591).
T1 construct: purchased Sigma type VI-S (catalogue number not given)
T1 sequence (P00591 1-450): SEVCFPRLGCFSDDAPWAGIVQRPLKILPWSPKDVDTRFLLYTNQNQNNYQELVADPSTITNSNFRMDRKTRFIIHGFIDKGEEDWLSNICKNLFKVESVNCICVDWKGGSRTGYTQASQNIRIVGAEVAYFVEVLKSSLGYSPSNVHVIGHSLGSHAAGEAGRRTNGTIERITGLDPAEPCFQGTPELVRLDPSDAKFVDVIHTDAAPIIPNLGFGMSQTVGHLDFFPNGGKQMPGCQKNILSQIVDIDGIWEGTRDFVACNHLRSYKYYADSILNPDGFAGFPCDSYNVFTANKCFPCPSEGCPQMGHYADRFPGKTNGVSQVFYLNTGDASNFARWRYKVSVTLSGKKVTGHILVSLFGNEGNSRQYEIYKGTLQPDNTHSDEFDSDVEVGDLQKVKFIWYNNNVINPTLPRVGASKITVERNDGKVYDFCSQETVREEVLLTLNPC
The experiment in a line: Pancreatic lipase assay (pH-stat titration, triolein substrate). It counts as biochemical. Also noted: Ymax: unit not given here. The settings on record: for k / Ymax: 7.0 nM lipase, 700 nM inhibitor, pH 8.0; for k: k fitted for the 12.5 min after inhibitor addition, Y=Ymax*(1-exp(-k*X)); for Ymax: Ymax of the fit Y=Ymax*(1-exp(-k*X)); for inhibition at 0.7 µM: 12.5 min. As to the method:
The use of a pancreatic lipase assay has been described in the literature (Hadvary, P. et al. Biochem. J. (1988) 256: 357-361; Hadvary, P. et al. Biochem. J. (1991) 266:2021-2027). Pancreatic lipase activity was measured using a 718 Stat Titrino (Brinkmann) programmed to maintain a pH of 8.0 using 0.1 N NaOH. The substrate mixture (pH 8) contained 1 mM taurochenodeoxycholate (Sigma), 9 mM taurodeoxycholate (Sigma), 0.1 mM cholesterol (Sigma), 1 mM phosphatidylcholine (Sigma), 1.5% BSA, 2 mM Tris base, 100 mM NaCl, 10 mM CaCl2, and 3% triolein (Sigma). The mixture (5 mL) was emulsified via sonication at room temperature, and added to the titration vessel with rapid stirring. The Stat Titrino was turned on and lipase (7.0 nM type VI-S porcine pancreatic lipase (Sigma) dissolved in PBS) was added to the vessel. After 10 min, inhibitor (700 nM dissolved in 100% DMSO) was added and the reaction continued for an additional 12.5 min. The k values were determined for the 12.5 min after the addition of the inhibitor using a one phase exponential association equation, Y=Ymax*(1−exp(−k*X)), k values for lipase alone were 0.0004±0.0001 sec. The k values for compounds disclosed herein are >0.0004±0.0001 sec.

The compound `CCCCCCCCCCCCCCNc1nc2sc(C(=O)NCCCCCCCC)c(C)c2c(=O)o1` [Entry 25, 5-Methyl-4-oxo-2-tetradecylamino-4H-thieno[2,3-d][1,3]oxazine-6-carboxylic acid octylamide] returned a melting point of 145 to 145.8 °C. Besides, the k in data set [1] is on record as 1.629 10-3.s-1.

Consider `CCCCCCCCNc1nc2sc(C(=O)OC(CCCC)CCCC)c(C)c2c(=O)o1` [Entry 39, 5-Methyl-2-octylamino-4-oxo-4H-thieno[2,3-d][1,3]oxazine-6-carboxylic acid 1-butyl-pentyl ester], for which the melting point lay within 90 to 92 °C. In data set [1], the Ymax is recorded as 0.156 and the k is on record as 1.253 10-3.s-1.

For `CCCCC(CCCC)Nc1nc2sc(C(=O)OCc3ccccc3)c(C)c2c(=O)o1` [Entry 59, 2-(1-Butyl-pentylamino)-5-methyl-4-oxo-4H-thieno[2,3-d][1,3]oxazine-6-carboxylic acid benzyl ester], the melting point is 136 to 138 °C. For the same compound, the k in data set [1] was 0.222 10-3.s-1.

In turn, `CCCCCCCCNc1nc2sc(C(=O)N(CCCCCCCC)CCCCCCCC)c(C)c2c(=O)o1` [Entry 41, 5-Methyl-2-octylamino-4-oxo-4H-thieno[2,3-d][1,3]oxazine-6-carboxylic acid dioctylamide] displayed a melting point of 48 to 50 °C. Also, in data set [1], the Ymax worked out at 0.130 and the k is 1.050 10-3.s-1.

`CCCCCCCCNc1nc2sc(C(=O)NCC(=O)OCc3ccccc3)c(C)c2c(=O)o1` [Entry 48, [(5-Methyl-2-octylamino-4-oxo-4H-thieno[2,3-d][1,3]oxazine-6-carbonyl)-amino]-acetic acid benzyl ester]: the melting point is 147 to 149 °C. In addition, in data set [1], the k is given as 0.440 10-3.s-1.

In turn, `CCCCCCCCNc1nc2sc(C(=O)NCc3ccc4c(c3)OCO4)c(C)c2c(=O)o1` [Entry 69, 5-Methyl-2-octylamino-4-oxo-4H-thieno(2,3-d)(1,3)oxazine-6-carboxylic acid (2-benzo(1,3)dioxol-5-yl-methyl)-amide] had a melting point of 149 to 152 °C. For the same compound, in data set [1], the Ymax is 0.112 and the k is on record as 1.137 10-3.s-1.

Turning to `CCCCCCCCNC(=O)Nc1sc(C(=O)N2CCN(Cc3ccccc3)CC2)c(C)c1C(=O)O` [Entry 37, 5-(4-Benzyl-piperazine-1-carbonyl)-4-methyl-2-(3-octyl-ureido)-thiophene-3-carboxylic acid], the melting point was 193.5 to 195 °C (dec.). Besides, in data set [1], the Ymax turned out to be 0.211 and the k is 0.574 10-3.s-1.

Regarding `CCCCCCN(C)c1nc2sc(C(=O)OCc3ccccc3)c(C)c2c(=O)o1` [Entry 57, 2-(Hexyl-methyl-amino)-5-methyl-4-oxo-4H-thieno[2,3-d][1,3]oxazine-6-carboxylic acid benzyl ester], the melting point lay in the range of 86 to 88 °C. For the same compound, the k in data set [1] is 0.070 10-3.s-1.

Compound `CCCCCCCCCCCCCCCCNc1nc2sc(C(=O)NCCCCCCCC)c(C)c2c(=O)o1` [Entry 26, 2-Hexadecylamino-5-methyl-4-oxo-4H-thieno[2,3-d][1,3]oxazine-6-carboxylic acid octylamide] registered a melting point of 146.3 to 147 °C. Also, the k in data set [1] is 1.709 10-3.s-1.

In the case of `CCCCCCCCNc1nc2sc(C(=O)N(CCCCCC)CCCCCC)c(C)c2c(=O)o1` [Entry 42, 5-Methyl-2-octylamino-4-oxo-4H-thieno[2,3-d][1,3]oxazine-6-carboxylic acid dihexylamide], the melting point was 42 to 45 °C. Further, in data set [1], the Ymax came to 0.124 and the k was 1.123 10-3.s-1.

`CCCCCCCCNc1nc2sc(C(=O)NCCCc3ccccc3)c(C)c2c(=O)o1` [Entry 80, 5-Methyl-2-octylamino-4-oxo-4H-thieno(2,3-d)(1,3)oxazine-6-carboxylic acid (3-phenyl-propyl)-amide]: the melting point fell in the range of 139 to 141 °C. Further, testing at 0.7 µM in data set [1] gave an inhibition of 66.3%.

Compound `CCCCCCCCNc1nc2sc(Cc3ccccc3)cc2c(=O)o1` [Entry 62, 6-Benzyl-2-octylamino-thieno[2,3-d][1,3]oxazin-4-one] registered a melting point of 123 to 124 °C. Moreover, in data set [1], the Ymax is 1.901 and the k is 0.103 10-3.s-1.

`CCCCCCCCNc1nc2sc(CCCC)cc2c(=O)o1` [Entry 63, 6-Butyl-2-octylamino-thieno[2,3-d][1,3]oxazin-4-one] registered a melting point of 93 to 94 °C. Besides, in data set [1], the Ymax turned out to be 10.091 and the k is 0.074 10-3.s-1.

Consider `CCCCCCCCNc1nc2sc(C(=O)NCc3cccnc3)c(C)c2c(=O)o1` [Entry 35, 5-Methyl-2-octylamino-4-oxo-4H-thieno[2,3-d][1,3]oxazine-6-carboxylic acid (pyridin-3-ylmethyl)amide], for which the melting point lay within 148 to 150 °C. In addition, the k in data set [1] was 1.544 10-3.s-1.

The compound `CCCCCCCCNc1nc2sc(C(=O)NCC(C)(C)C)c(C)c2c(=O)o1` [Entry 58] displayed a melting point of 173 to 174.5 °C. Also, in data set [1], the k is 0.723 10-3.s-1.

As for `CCCCCCCCOc1nc2sc(CCCCCCC)c(C)c2c(=O)o1` [Entry 74, 6-Heptyl-5-methyl-2-octyloxy-thieno[2,3-d][1,3]oxazin-4-one], the melting point is 29 to 31 °C. In data set [1], the Ymax came to 0.982 and the k was 0.422 10-3.s-1.

The compound `CCCCCCCCNc1nc2sc(C(=O)NCCCCc3ccccc3)c(C)c2c(=O)o1` [Entry 79, 5-Methyl-2-octylamino-4-oxo-4H-thieno(2,3-d)(1,3)oxazine-6-carboxylic acid (4-phenyl-butyl)-amide] displayed a melting point of 153 to 154 °C. In addition, the inhibition at 0.7 µM in data set [1] was 69.5%.

`CCCCCCCCNc1nc2sc(C(=O)N3CCC(Cc4ccccc4)CC3)c(C)c2c(=O)o1` [Entry 43, 6-(4-Benzyl-piperidine-1-carbonyl)-5-methyl-2-octylamino-thieno[2,3-d][1,3]oxazin-4-one] came in with a melting point of 100 to 106 °C. Further, the k in data set [1] was 0.009 10-3.s-1.

`CCCCCCCCCCCCNc1nc2sc(C(=O)NCCCCCCCC)c(C)c2c(=O)o1` [Entry 24, 2-Dodecylamino-5-methyl-4-oxo-4H-thieno[2,3-d][1,3]oxazine-6-carboxylic acid octylamide] returned a melting point of 137.1 to 138 °C. Further, the k in data set [1] was 1.849 10-3.s-1.

In turn, `CCCCCCCCOC(=O)c1sc2nc(OCCCCCCCC)oc(=O)c2c1C` [Entry 9, 5-Methyl-2-octyloxy-4-oxo-4H-thieno[2,3-d][1,3]oxazine-6-carboxylic acid octyl ester] returned a melting point of 58.5 to 60.2 °C. In addition, in data set [1], the Ymax turned out to be 0.286 and the k was 0.924 10-3.s-1.

In turn, `CCCCCCCCNc1nc2sc(C(=O)OCc3ccccc3)c(C)c2c(=O)o1` [Entry 16, 5-Methyl-2-octylamino-4-oxo-4H-thieno[2,3-d][1,3]oxazine-6-carboxylic acid benzyl ester] registered a melting point of 153.5 to 154 °C. In addition, the k in data set [1] is listed as 1.711 10-3.s-1.

`CCCCCCCCOC(=O)c1sc2nc(OC(C)C)oc(=O)c2c1C` [Entry 12, 2-iso-Propoxy-5-methyl-4-oxo-4H-thieno[2,3-d][1,3]oxazine-6-carboxylic acid octyl ester] displayed a melting point of 47.5 to 48 °C. In data set [1], the k is 0.438 10-3.s-1.

The compound `CCCCCCCCNC(=O)c1sc2nc(NCCCCCCCC)oc(=O)c2c1C` [Entry 18, 5-Methyl-2-octylamino-4-oxo-4H-thieno[2,3-d][1,3]oxazine-6-carboxylic acid octylamide] showed a melting point of 152 to 152.8 °C. In data set [1], the k is 1.036 10-3.s-1 and the inhibition at 0.7 µM stood at 18%.

For the compound `CCCCCCCCNc1nc2sc(CCCCCCC)cc2c(=O)o1` [Entry 61, 6-Heptyl-2-octylamino-thieno[2,3-d][1,3]oxazin-4-one], the melting point lay in the range of 89 to 91 °C. Moreover, in data set [1], the Ymax was 0.460 and the k was 0.247 10-3.s-1.

A word on the melting point: it is the temperature, or range, at which the solid turns liquid. The inhibition is the percentage by which the read-out fell short of the control.
